Reference: patent publication US10004701B2, “Methods and compositions for treating infection” (UNIVERSITY OF ROCHESTER, priority 2012, dated 2018)
Structures can show the parent of a compound that is named as a salt. Where two headings read alike, the source gives them in different places.

Tests used:
Experiment in all cases: AK assay 384-well format, Prestwick library screening
E. faecium = assay type: cell-based, Enterococcus faecium; details: Enterococcus faecium, 3 h
[1] = system: S. aureus strain USA300-0114; assay type: cell-based, Staphylococcus aureus; details: Staphylococcus aureus, USA300, 3 h
K. pneumoniae = assay type: cell-based, Klebsiella pneumoniae; details: Klebsiella pneumoniae, 3 h
[2] = system: A. baumannii strain 98-37-09; assay type: cell-based, Acinetobacter baumannii; details: Acinetobacter baumannii, 983709, 3 h
P. aeruginosa = assay type: cell-based, Pseudomonas aeruginosa; details: Pseudomonas aeruginosa, 3 h
E. cloacae = assay type: cell-based, Enterobacter cloacae; details: Enterobacter cloacae, 3 h
E. coli = assay type: cell-based, Escherichia coli; details: Escherichia coli, 3 h
[3] = 50 μM final drug concentration, planktonic, cutoff for positive 3-fold increase, read-out: AK-based Prestwick Library Screening Results, E. faecium (fold increase in extracellular AK activity)
[4] = 50 μM final drug concentration, planktonic, cutoff for positive 3-fold increase, read-out: AK-based Prestwick Library Screening Results, S. aureus (fold increase in extracellular AK activity)
[5] = 50 μM final drug concentration, planktonic, cutoff for positive 3-fold increase, read-out: AK-based Prestwick Library Screening Results, K. pneumoniae (fold increase in extracellular AK activity)
[6] = 50 μM final drug concentration, planktonic, cutoff for positive 3-fold increase, read-out: AK-based Prestwick Library Screening Results, A. baumannii (fold increase in extracellular AK activity)
[7] = 50 μM final drug concentration, planktonic, cutoff for positive 3-fold increase, read-out: AK-based Prestwick Library Screening Results, P. aeruginosa (fold increase in extracellular AK activity)
[8] = 50 μM final drug concentration, planktonic, cutoff for positive 3-fold increase, read-out: AK-based Prestwick Library Screening Results, E. cloacae (fold increase in extracellular AK activity)
[9] = 50 μM final drug concentration, planktonic, cutoff for positive 3-fold increase, read-out: AK-based Prestwick Library Screening Results, E. coli (fold increase in extracellular AK activity)

With C#CCN(C)[C@H](C)Cc1ccccc1 [Selegiline hydrochloride] the fold induction at 50 µM (E. faecium; 50 μM final drug concentration, planktonic, […], read-out: AK-based Prestwick Library Screening Results, E. faecium (fold increase in extracellular AK activity)) was 1, the fold induction at 50 µM ([1]; 50 μM final drug concentration, planktonic, […], read-out: AK-based Prestwick Library Screening Results, S. aureus (fold increase in extracellular AK activity)) was 1.1 and the fold induction at 50 µM (K. pneumoniae; 50 μM final drug concentration, planktonic, […], read-out: AK-based Prestwick Library Screening Results, K. pneumoniae (fold increase in extracellular AK activity)) was 1.2. For the same compound, the fold induction at 50 µM ([2]; 50 μM final drug concentration, planktonic, […], read-out: AK-based Prestwick Library Screening Results, A. baumannii (fold increase in extracellular AK activity)) was 1.1, the fold induction at 50 µM (P. aeruginosa; 50 μM final drug concentration, planktonic, […], read-out: AK-based Prestwick Library Screening Results, P. aeruginosa (fold increase in extracellular AK activity)) was 1.2 and the fold induction at 50 µM (E. cloacae; 50 μM final drug concentration, planktonic, […], read-out: AK-based Prestwick Library Screening Results, E. cloacae (fold increase in extracellular AK activity)) was 1.6. The fold induction at 50 µM (E. coli; 50 μM final drug concentration, planktonic, […], read-out: AK-based Prestwick Library Screening Results, E. coli (fold increase in extracellular AK activity)) was 1.3.

In the case of CC1=NCCc2c1[nH]c1cc(O)ccc21 [Harmalol hydrochloride dihydrate], the fold induction at 50 µM (E. faecium; [3]) was 1, the fold induction at 50 µM [1, 4] was 0.8 and the fold induction at 50 µM (K. pneumoniae; [5]) was 0.8. For the same compound, the fold induction at 50 µM [2, 6] was 1.1, the fold induction at 50 µM (P. aeruginosa; [7]) was 1.2 and the fold induction at 50 µM (E. cloacae; [8]) was 1.6. It also gave a fold induction at 50 µM (E. coli; [9]) of 1.2.

Work on CN1C(=O)CCS(=O)(=O)C1c1ccc(Cl)cc1 (centres unmarked) [Chlormezanone] yielded a fold induction at 50 µM (E. faecium; planktonic E. faecium, 50 μM final drug concentration, […], read-out: AK-based Prestwick Library Screening Results, E. faecium (increase in extracellular AK activity)) of 1, a fold induction at 50 µM ([1]; planktonic S. aureus, 50 μM final drug concentration, […], read-out: AK-based Prestwick Library Screening Results, S. aureus (increase in extracellular AK activity)) of 0.7 and a fold induction at 50 µM (K. pneumoniae; planktonic K. pneumoniae, 50 μM final drug concentration, […], read-out: AK-based Prestwick Library Screening Results, K. pneumoniae (increase in extracellular AK activity)) of 0.6. It also gave a fold induction at 50 µM ([2]; planktonic A. baumannii, 50 μM final drug concentration, […], read-out: AK-based Prestwick Library Screening Results, A. baumannii (increase in extracellular AK activity)) of 0.7, a fold induction at 50 µM (P. aeruginosa; planktonic P. aeruginosa, 50 μM final drug concentration, […], read-out: AK-based Prestwick Library Screening Results, P. aeruginosa (increase in extracellular AK activity)) of 0.6 and a fold induction at 50 µM (E. cloacae; planktonic E. cloacae, 50 μM final drug concentration, […], read-out: AK-based Prestwick Library Screening Results, E. cloacae (increase in extracellular AK activity)) of 0.7. The fold induction at 50 µM (E. coli; planktonic E. coli, 50 μM final drug concentration, […], read-out: AK-based Prestwick Library Screening Results, E. coli (increase in extracellular AK activity)) was 0.7.

Work on Cc1cccc(CN2CCN(C(c3ccccc3)c3ccc(Cl)cc3)CC2)c1 (centres unmarked) [Meclozine dihydrochloride] yielded a fold induction at 50 µM (E. faecium; [3]) of 1.2, a fold induction at 50 µM [1, 4] of 2.1 and a fold induction at 50 µM (K. pneumoniae; [5]) of 0.9. It also gave a fold induction at 50 µM [2, 6] of 1.9, a fold induction at 50 µM (P. aeruginosa; [7]) of 1.2 and a fold induction at 50 µM (E. cloacae; [8]) of 1.4. For the same compound, the fold induction at 50 µM (E. coli; [9]) was 1.2.

In the case of CCOC(=O)[C@H](CCc1ccccc1)N[C@@H](C)C(=O)N1CCC[C@H]1C(=O)O [Enalapril maleate], the fold induction at 50 µM (E. faecium; planktonic E. faecium, 50 μM final drug concentration, 384-well, […], read-out: AK-based Prestwick Library Screening Results: E. faecium (increase in extracellular AK activity)) was 1.1, the fold induction at 50 µM ([1]; planktonic S. aureus, 50 μM final drug concentration, 384-well, […], read-out: AK-based Prestwick Library Screening Results: S. aureus (increase in extracellular AK activity)) was 1.3 and the fold induction at 50 µM (K. pneumoniae; planktonic K. pneumoniae, 50 μM final drug concentration, 384-well, […], read-out: AK-based Prestwick Library Screening Results: K. pneumoniae (increase in extracellular AK activity)) was 1.2. The fold induction at 50 µM ([2]; planktonic A. baumannii, 50 μM final drug concentration, 384-well, […], read-out: AK-based Prestwick Library Screening Results: A. baumannii (increase in extracellular AK activity)) was 1.3, the fold induction at 50 µM (P. aeruginosa; planktonic P. aeruginosa, 50 μM final drug concentration, 384-well, […], read-out: AK-based Prestwick Library Screening Results: P. aeruginosa (increase in extracellular AK activity)) was 1.2 and the fold induction at 50 µM (E. cloacae; planktonic E. cloacae, 50 μM final drug concentration, 384-well, […], read-out: AK-based Prestwick Library Screening Results: E. cloacae (increase in extracellular AK activity)) was 1.3. It also gave a fold induction at 50 µM (E. coli; planktonic E. coli, 50 μM final drug concentration, 384-well, […], read-out: AK-based Prestwick Library Screening Results: E. coli (increase in extracellular AK activity)) of 1.2.

For CCCNC(=O)NS(=O)(=O)c1ccc(Cl)cc1 [Chlorpropamide], the fold induction at 50 µM (E. faecium; planktonic E. faecium, 50 μM final drug concentration, 384-well, cutoff for positive-scoring molecules 3-fold increase, read-out: AK-based Prestwick Library Screening Results: E. faecium (increase in extracellular AK activity)) was 0.9, the fold induction at 50 µM ([1]; planktonic S. aureus, 50 μM final drug concentration, 384-well, cutoff for positive-scoring molecules 3-fold increase, read-out: AK-based Prestwick Library Screening Results: S. aureus (increase in extracellular AK activity)) was 0.4 and the fold induction at 50 µM (K. pneumoniae; planktonic K. pneumoniae, 50 μM final drug concentration, 384-well, cutoff for positive-scoring molecules 3-fold increase, read-out: AK-based Prestwick Library Screening Results: K. pneumoniae (increase in extracellular AK activity)) was 0.4. It also gave a fold induction at 50 µM ([2]; planktonic A. baumannii, 50 μM final drug concentration, 384-well, cutoff for positive-scoring molecules 3-fold increase, read-out: AK-based Prestwick Library Screening Results: A. baumannii (increase in extracellular AK activity)) of 0.3, a fold induction at 50 µM (P. aeruginosa; planktonic P. aeruginosa, 50 μM final drug concentration, 384-well, cutoff for positive-scoring molecules 3-fold increase, read-out: AK-based Prestwick Library Screening Results: P. aeruginosa (increase in extracellular AK activity)) of 0.3 and a fold induction at 50 µM (E. cloacae; planktonic E. cloacae, 50 μM final drug concentration, 384-well, cutoff for positive-scoring molecules 3-fold increase, read-out: AK-based Prestwick Library Screening Results: E. cloacae (increase in extracellular AK activity)) of 0.3. It also gave a fold induction at 50 µM (E. coli; planktonic E. coli, 50 μM final drug concentration, 384-well, cutoff for positive-scoring molecules 3-fold increase, read-out: AK-based Prestwick Library Screening Results: E. coli (increase in extracellular AK activity)) of 0.4.

CO/N=C(\C(=O)N[C@@H]1C(=O)N2C(C(=O)O)=C(C[N+]3(C)CCCC3)CS[C@H]12)c1csc(N)n1 [Cefepime hydrochloride] was tested, and the fold induction at 50 µM (E. faecium; planktonic E. faecium, 50 μM final drug concentration, positive cutoff 3-fold increase, read-out: AK-based Prestwick library screening result, E. faecium (fold increase in extracellular AK activity)) was 1, the fold induction at 50 µM ([1]; planktonic S. aureus, 50 μM final drug concentration, positive cutoff 3-fold increase, read-out: AK-based Prestwick library screening result, S. aureus (fold increase in extracellular AK activity)) was 3.1 and the fold induction at 50 µM (K. pneumoniae; planktonic K. pneumoniae, 50 μM final drug concentration, positive cutoff 3-fold increase, read-out: AK-based Prestwick library screening result, K. pneumoniae (fold increase in extracellular AK activity)) was 4.9. The fold induction at 50 µM ([2]; planktonic A. baumannii, 50 μM final drug concentration, positive cutoff 3-fold increase, read-out: AK-based Prestwick library screening result, A. baumannii (fold increase in extracellular AK activity)) was 3.4, the fold induction at 50 µM (P. aeruginosa; planktonic P. aeruginosa, 50 μM final drug concentration, positive cutoff 3-fold increase, read-out: AK-based Prestwick library screening result, P. aeruginosa (fold increase in extracellular AK activity)) was 15.6 and the fold induction at 50 µM (E. cloacae; planktonic E. cloacae, 50 μM final drug concentration, positive cutoff 3-fold increase, read-out: AK-based Prestwick library screening result, E. cloacae (fold increase in extracellular AK activity)) was 1.9. It also gave a fold induction at 50 µM (E. coli; planktonic E. coli, 50 μM final drug concentration, positive cutoff 3-fold increase, read-out: AK-based Prestwick library screening result, E. coli (fold increase in extracellular AK activity)) of 19.3.

With CC(=C(CCO)SSCC1CCCO1)N(C=O)Cc1cnc(C)nc1N (stereo in doubt) [Fursultiamine Hydrochloride] the fold induction at 50 µM (E. faecium; read-out: AK-based Prestwick library screening result, E. faecium (fold increase in extracellular AK activity)) was 1.1, the fold induction at 50 µM ([1]; read-out: AK-based Prestwick library screening result, S. aureus (fold increase in extracellular AK activity)) was 1 and the fold induction at 50 µM (K. pneumoniae; read-out: AK-based Prestwick library screening result, K. pneumoniae (fold increase in extracellular AK activity)) was 1. For the same compound, the fold induction at 50 µM ([2]; read-out: AK-based Prestwick library screening result, A. baumannii (fold increase in extracellular AK activity)) was 1.3, the fold induction at 50 µM (P. aeruginosa; read-out: AK-based Prestwick library screening result, P. aeruginosa (fold increase in extracellular AK activity)) was 1.1 and the fold induction at 50 µM (E. cloacae; read-out: AK-based Prestwick library screening result, E. cloacae (fold increase in extracellular AK activity)) was 1.2. It also gave a fold induction at 50 µM (E. coli; read-out: AK-based Prestwick library screening result, E. coli (fold increase in extracellular AK activity)) of 1.4.
